# Assay: Thermal stability of curcuminoids in the apolar fraction
# Type: physicochemical
# Details: stabilized as of 24-48 hours of exposure
# Experimental: Initially, a greater degradation is produced which is stabilized as of 24-48 hours of exposure. Degradation is kept at 2% for temperatures lower than 50° C. and at 4% at 80° C.
structure (smiles),measurement,setting,value
"COc1cc(/C=C/C(=O)CC(=O)/C=C/c2ccc(O)c(OC)c2)ccc1O [curcumin, curcumin (dipheruloylmethane)]",thermal degradation of curcuminoids,80° C,4%
same,thermal degradation of curcuminoids,temperatures lower than 50° C,2%

# — patent US6440468B1, “Method for obtaining apolar and polar extracts of curcuma and applications thereof” (A.S.A.C. Pharmaceutical International, A.I.E., priority 1994, dated 2002)
